Consider 15 compounds from ChEMBL document CHEMBL1201862, “PubChem BioAssay data set” (2004).

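Dose response: 5 concentrations. Exposure: 48 h. Format: 96-well plates. Endpoint: linear interpolation; highest concentration if not reached. The concentration for 50% growth inhibition is given as GI50.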 Activity calls are given as the source filed them. Rule as the data show it: active = GI50 up to about 1.1 µM and inactive = higher. A value given as a limit tells only on which side of the number the result lay.

Experiment in all cases: growth of human tumour cells (NCI), 48 h
Assay [1] concerns A498.
Assay [2] deals with CCRF-CEM.
Assay [3] has as its system HT-29.
The test system of assay [4] is IGROV-1.
The subject of assay [5] is LOX IMVI.
In assay [6] the test system is Malme-3M.
Assay [7] deals with NCI-H522.
For assay [8], the system named is RXF 393.
Assay [9] has as its system SF-295.
Assay [10] concerns SN12C.
Assay [11] deals with SNB-75.
Assay [12] relates to TK-10.
Assay [13] has as its system U-251.
Assay [14] deals with UACC-62.
For assay [15], the system named is SF-268.

`CC(C)(C)C1CCN(C(=O)c2ccccc2)CC1`: the GI50 was > 100 µM (inactive) in assay [1]; > 100 µM (inactive) in assay [2]; > 100 µM (inactive) in assay [3]; > 100 µM (inactive) in assay [4]; > 100 µM (inactive) in [5]; 43.6 µM (inactive) in [6]. Further, the GI50 in assay [7] is 62.7 µM (inactive); in assay [8], 76 µM (inactive); in assay [9], > 100 µM (inactive); in [10], > 100 µM (inactive); in assay [11], 69 µM (inactive); in [12], > 100 µM (inactive). For the same compound, the GI50 in assay [13] and in [14] was > 100 µM (inactive) throughout.
On to `O=C1NC(=O)C(=O)C(c2nc3ccccc3s2)C1=O`, for which the GI50 in assay [1], in assay [2], in assay [3], in assay [4], in assay [6] and in assay [7] was > 100 µM (inactive) in each case. Further, the GI50 in assay [8], in assay [15], in assay [9], in [10], in [11] and in assay [12] was > 100 µM (inactive) throughout. Further, the GI50 in assay [13] and in [14] was > 100 µM (inactive) in each case.
On to `O=c1[nH]c2cc([N+](=O)[O-])ccc2nc1/C(=N\NO)C(O)c1ccc([N+](=O)[O-])cc1` (centres undefined), for which the GI50 in assay [2] is 66.2 µM (inactive); in assay [3], > 100 µM (inactive); in [4], > 100 µM (inactive); in assay [5], 85.1 µM (inactive); in [6], > 100 µM (inactive); in [7], 44.7 µM (inactive). Moreover, the GI50 was > 100 µM (inactive) in [8]; > 100 µM (inactive) in assay [15]; > 100 µM (inactive) in assay [9]; 98.9 µM (inactive) in assay [10]; > 100 µM (inactive) in [11]; > 100 µM (inactive) in [13]. The GI50 in [14] was 59.6 µM (inactive).
For the compound `O=C(CC(=O)c1cccc([N+](=O)[O-])c1)C(=O)Nc1nc([N+](=O)[O-])cs1`, the GI50 in assay [1] is > 100 µM (inactive); in assay [2], 47.8 µM (inactive); in [3] it was > 100 µM (inactive); in assay [4], > 100 µM (inactive); in [5] it was > 100 µM (inactive); in assay [6], > 100 µM (inactive). Besides, the GI50 is 33.3 µM (inactive) in assay [7]; > 100 µM (inactive) in assay [8]; > 100 µM (inactive) in [15]; > 100 µM (inactive) in assay [9]; > 100 µM (inactive) in assay [10]; > 100 µM (inactive) in assay [12]. Further, the GI50 in assay [13] and in assay [14] was > 100 µM (inactive) each time.
In the case of `CC(Nc1ccc(S(=O)(=O)NC(=N)N)cc1)c1c2ccccc2nc2ccccc12` (centres undefined), the GI50 in [2] was 19.3 µM (inactive); in [3], 35.4 µM (inactive); in [4], 46.5 µM (inactive); in [5] it was 28 µM (inactive); in assay [6], 22.4 µM (inactive); in [7] it was 15.1 µM (inactive). Moreover, the GI50 in assay [8] is 26.9 µM (inactive); in [15], 31 µM (inactive); in [9] it was 35.2 µM (inactive); in [10] it was 30 µM (inactive); in [11], 26.8 µM (inactive); in [12], 47.4 µM (inactive). Also, the figures for the GI50 in assay [13] and in [14] were 31.6 µM (inactive) and > 10 µM (inactive), respectively.
Regarding `COc1ccc(/N=N/c2c(-c3ccccc3)nn(C(=O)CC(=O)Nc3ccc(OC)cc3)c2-c2ccccc2)cc1`, the GI50 in assay [1] is 33.2 µM (inactive); in assay [2] it was 23.7 µM (inactive); in [3] it was > 100 µM (inactive); in assay [4], 39.9 µM (inactive); in assay [5] it was > 100 µM (inactive); in assay [6], > 100 µM (inactive). Also, the GI50 in assay [7] is 61.5 µM (inactive); in [15], 48.5 µM (inactive); in assay [9] it was 21.1 µM (inactive); in assay [10], > 100 µM (inactive); in assay [11], 16 µM (inactive); in assay [12] it was 52.7 µM (inactive). The GI50 in assay [13] was 58.3 µM (inactive); in [14], 42.1 µM (inactive).
Take `C1=Cc2nc1c(-c1ccccc1)c1ccc([n-]1)c(-c1ccccc1)c1nc(c(-c3ccccc3)c3ccc([n-]3)c2-c2ccccc2)C=C1.[Zn+2]`: the GI50 in assay [2], in assay [3], in assay [4], in assay [5], in assay [6] and in [7] was > 100 µM (inactive) each time. In addition, the GI50 in assay [15] is > 100 µM (inactive); in assay [9], > 100 µM (inactive); in assay [10], > 100 µM (inactive); in [11], 67.5 µM (inactive); in assay [12], > 100 µM (inactive); in assay [13] it was > 100 µM (inactive). Moreover, in assay [14], the GI50 is > 100 µM (inactive).
For `NC(=O)CCC(Nc1c2ccccc2[n+]([O-])c2ccccc12)C(=O)O` (centres undefined), the GI50 in assay [1] was > 100 µM (inactive); in [2], 42.5 µM (inactive); in assay [4] it was > 100 µM (inactive); in assay [5], 49 µM (inactive); in [6], 32.7 µM (inactive); in assay [7] it was 29.9 µM (inactive). In addition, the GI50 in assay [15] was 64.7 µM (inactive); in assay [9], > 100 µM (inactive); in [10], 71.8 µM (inactive); in assay [11] it was 26.7 µM (inactive); in assay [12], > 100 µM (inactive); in assay [13] it was > 100 µM (inactive). The GI50 in assay [14] is 51.3 µM (inactive).
With `O=C(O)CCC1c2[nH]c3ccccc3c2CCN1Cc1ccccc1` (centres undefined), the GI50 in assay [1], in assay [2], in assay [3], in assay [4], in [5] and in assay [6] was > 100 µM (inactive) each time. The GI50 in assay [7], in assay [15], in assay [9], in assay [10], in assay [11] and in assay [12] was > 100 µM (inactive) each time. For the same compound, the GI50 in assay [13] and in assay [14] was > 100 µM (inactive) in each case.
In the case of `O=C(O)CCSC(=O)Nc1ccccc1F`, the GI50 in [1], in assay [2], in [3], in [5], in assay [7] and in assay [8] was > 100 µM (inactive) each time. The GI50 in assay [15], in [10], in assay [12] and in [13] was > 100 µM (inactive) in each case.
On to `O=C1/C(=C/c2ccccc2)CNC/C1=C\c1ccccc1`, for which the GI50 in assay [1] was 1.97 µM (inactive); in [2] it was 1.37 µM (inactive); in [3] it was 0.841 µM (active); in assay [4], 1.87 µM (inactive); in [5], 0.643 µM (active); in [6] it was 3.26 µM (inactive). The GI50 in [7] was 1.02 µM (active); in [15] it was 2.2 µM (inactive); in [9], 2.07 µM (inactive); in assay [10], 1.69 µM (inactive); in assay [11] it was 3.38 µM (inactive); in [12], 2.4 µM (inactive). Further, the GI50 in assay [13] was 0.36 µM (active); in [14], 1.76 µM (inactive).
Turning to `COc1ccc2oc(C(=O)O)c3c2c1CCC3`, the GI50 in [1], in assay [2], in assay [3], in assay [4], in [5] and in assay [8] was > 100 µM (inactive) throughout. For the same compound, the GI50 in [9], in [10], in assay [11], in assay [12], in assay [13] and in assay [14] was > 100 µM (inactive) each time.
For the compound `CCCCCCCCC1C(C)c2c([nH]c3ccccc23)C2C(=O)N(c3ccccc3)C(=O)C21` (centres undefined), the GI50 in assay [1] was 21.1 µM (inactive); in assay [2] it was 2.76 µM (inactive); in assay [3], 4.7 µM (inactive); in [4], 17.6 µM (inactive); in assay [6], 19.5 µM (inactive); in assay [8] it was 2.38 µM (inactive). Also, the GI50 in [9] was 15.7 µM (inactive); in assay [10], 11.4 µM (inactive); in assay [11], 19 µM (inactive); in assay [12], 20.1 µM (inactive); in [13], 8.53 µM (inactive); in [14], 18.9 µM (inactive).
Regarding `CC(C)(C)[C@H]1CC[C@@](O)(c2ccccc2)CC1.CC(C)(C)[C@H]1CC[C@](O)(c2ccccc2)CC1`, the GI50 is 19.5 µM (inactive) in [1]; 26.5 µM (inactive) in assay [2]; 16.2 µM (inactive) in [3]; 25.9 µM (inactive) in [4]; 15.3 µM (inactive) in assay [5]; 29.9 µM (inactive) in [6]. The GI50 is 23.4 µM (inactive) in [7]; 18.6 µM (inactive) in assay [8]; 36.4 µM (inactive) in assay [9]; 18.8 µM (inactive) in assay [10]; 24.3 µM (inactive) in [11]; 19.4 µM (inactive) in [12]. Besides, the GI50 is 16.3 µM (inactive) in assay [13] and 19.1 µM (inactive) in assay [14].
In the case of `O=c1/c(=C/c2cccc([N+](=O)[O-])c2)sc2nc3ccccc3n12`, the GI50 was > 100 µM (inactive) in [1]; > 100 µM (inactive) in assay [2]; > 100 µM (inactive) in assay [3]; > 10 µM (inactive) in assay [4]; 6.73 µM (inactive) in assay [5]; > 100 µM (inactive) in assay [6]. Also, the GI50 is > 100 µM (inactive) in assay [8]; 39.2 µM (inactive) in [15]; > 10 µM (inactive) in assay [9]; > 100 µM (inactive) in assay [10]; 32.8 µM (inactive) in assay [11]; > 100 µM (inactive) in assay [12]. Further, the GI50 in assay [13] is > 10 µM (inactive); in [14] it was 0.446 µM (active).
